Reference: patent US20220340597A1, “HEXAHYDRO-1H-PYRAZINO[1,2-A]PYRAZINE COMPOUNDS FOR THE TREATMENT OF AUTOIMMUNE DISEASE” (Hoffmann-La Roche Inc., priority 2019, published 2022)

Experiments:
human TLR7 = target: T1, human TLR7 (Homo sapiens, UniProt Q9NYK1); assay: HEK293-Blue-hTLR-7 cells assay; format: cell-based; settings: HEK293-Blue-hTLR7 cells, R848 stimulation, 20 hrs, SEAP reporter; read-out: HEK/hTLR7 IC50
T1 construct: host or cells: HEK293 (HEK-Blue hTLR7)
T1 sequence (Q9NYK1 27-1049): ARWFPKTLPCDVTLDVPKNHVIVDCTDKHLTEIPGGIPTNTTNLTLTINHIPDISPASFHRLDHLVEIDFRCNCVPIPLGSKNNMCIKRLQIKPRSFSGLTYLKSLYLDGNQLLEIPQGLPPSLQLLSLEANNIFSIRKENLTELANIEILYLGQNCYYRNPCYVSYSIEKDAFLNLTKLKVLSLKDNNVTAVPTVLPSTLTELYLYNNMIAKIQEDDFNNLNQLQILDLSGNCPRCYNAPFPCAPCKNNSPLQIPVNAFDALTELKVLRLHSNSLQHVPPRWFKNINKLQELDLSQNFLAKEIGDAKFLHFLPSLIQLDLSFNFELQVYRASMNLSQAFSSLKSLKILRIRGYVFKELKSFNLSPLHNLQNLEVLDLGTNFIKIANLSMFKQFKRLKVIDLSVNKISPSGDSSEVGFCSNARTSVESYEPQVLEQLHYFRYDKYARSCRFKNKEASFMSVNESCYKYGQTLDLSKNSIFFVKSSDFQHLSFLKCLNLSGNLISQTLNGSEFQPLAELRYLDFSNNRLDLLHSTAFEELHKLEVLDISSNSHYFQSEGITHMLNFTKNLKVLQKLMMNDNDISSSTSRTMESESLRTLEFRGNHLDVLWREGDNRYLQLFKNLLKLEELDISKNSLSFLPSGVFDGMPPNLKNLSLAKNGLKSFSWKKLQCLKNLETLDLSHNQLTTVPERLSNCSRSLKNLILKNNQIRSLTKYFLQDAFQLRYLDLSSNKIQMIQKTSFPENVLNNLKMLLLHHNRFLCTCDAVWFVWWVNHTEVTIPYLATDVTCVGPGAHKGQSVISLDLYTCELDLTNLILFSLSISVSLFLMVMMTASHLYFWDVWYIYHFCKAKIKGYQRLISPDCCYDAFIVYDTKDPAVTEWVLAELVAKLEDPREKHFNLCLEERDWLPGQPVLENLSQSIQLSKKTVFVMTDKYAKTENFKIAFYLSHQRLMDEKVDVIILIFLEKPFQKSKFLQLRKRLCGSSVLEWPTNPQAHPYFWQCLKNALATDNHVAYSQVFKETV

hERG channel = target: T2, hERG channel (Homo sapiens, UniProt Q12809); assay: hERG channel inhibition assay (patch-clamp, CHOhERG cells); format: cell-based; settings: for IC50 / IC20: CHOhERG cells, whole-cell patch-clamp; for IC20: human, CHO cells stably expressing hERG (CHOhERG); for hERG IC20/TLR7 IC50 / hERG IC20/TLR8 IC50 / hERG IC20/TLR9 IC50: safety ratio
T2 construct: expressed in transfected cells; host or cells: CHO (Chinese hamster ovary), CHOhERG
Description: hERG Channel Inhibition Assay:
The hERG K^+ channels were cloned in humans and stably expressed in a CHO (Chinese hamster ovary) cell line. CHOhERG cells were used for patch-clamp (voltage-clamp, whole-cell) experiments. Cells were stimulated by a voltage pattern to activate hERG channels and conduct IKhERG currents (rapid delayed outward rectifier potassium current of the hERG channel). After the cells were stabilized for a few minutes, the amplitude and kinetics of IKhERG were recorded at a stimulation frequency of 0.1 Hz (6 bpm). Thereafter, the test compound was added to the preparation at increasing concentrations. For each concentration, an attempt was made to reach a steady-state effect, usually, this was achieved within 3-10 min at which time the next highest concentration was applied. The amplitude and kinetics of IKhERG are recorded in each concentration of the drug which were compared to the control values (taken as 100%). (references: Redfern W S, Carlsson L, Davis A S, Lynch W G, MacKenzie I, Palethorpe S, Siegl P K, Strang I, Sullivan A T, Wallis R, Camm A J, Hammond T G. 2003; Relationships between preclinical cardiac electrophysiology, clinical QT interval prolongation and torsade de pointes for a broad range of drugs: evidence for a provisional safety margin in drug development. Cardiovasc. Res. 58:32-45, Sanguinetti M C, Tristani-Firouzi M. 2006; hERG potassium channels and cardiac arrhythmia. Nature 440:463-469, Webster R, Leishman D, Walker D. 2002; Towards a drug concentration effect relationship for QT prolongation and torsades de pointes. Curr. Opin. Drug Discov. Devel. 5:116-26).
The calculation of hERG IC20/TLR7/8/9 IC50 below serves as early selectivity index to assess hERG liability.

T2 sequence (Q12809 whole entry): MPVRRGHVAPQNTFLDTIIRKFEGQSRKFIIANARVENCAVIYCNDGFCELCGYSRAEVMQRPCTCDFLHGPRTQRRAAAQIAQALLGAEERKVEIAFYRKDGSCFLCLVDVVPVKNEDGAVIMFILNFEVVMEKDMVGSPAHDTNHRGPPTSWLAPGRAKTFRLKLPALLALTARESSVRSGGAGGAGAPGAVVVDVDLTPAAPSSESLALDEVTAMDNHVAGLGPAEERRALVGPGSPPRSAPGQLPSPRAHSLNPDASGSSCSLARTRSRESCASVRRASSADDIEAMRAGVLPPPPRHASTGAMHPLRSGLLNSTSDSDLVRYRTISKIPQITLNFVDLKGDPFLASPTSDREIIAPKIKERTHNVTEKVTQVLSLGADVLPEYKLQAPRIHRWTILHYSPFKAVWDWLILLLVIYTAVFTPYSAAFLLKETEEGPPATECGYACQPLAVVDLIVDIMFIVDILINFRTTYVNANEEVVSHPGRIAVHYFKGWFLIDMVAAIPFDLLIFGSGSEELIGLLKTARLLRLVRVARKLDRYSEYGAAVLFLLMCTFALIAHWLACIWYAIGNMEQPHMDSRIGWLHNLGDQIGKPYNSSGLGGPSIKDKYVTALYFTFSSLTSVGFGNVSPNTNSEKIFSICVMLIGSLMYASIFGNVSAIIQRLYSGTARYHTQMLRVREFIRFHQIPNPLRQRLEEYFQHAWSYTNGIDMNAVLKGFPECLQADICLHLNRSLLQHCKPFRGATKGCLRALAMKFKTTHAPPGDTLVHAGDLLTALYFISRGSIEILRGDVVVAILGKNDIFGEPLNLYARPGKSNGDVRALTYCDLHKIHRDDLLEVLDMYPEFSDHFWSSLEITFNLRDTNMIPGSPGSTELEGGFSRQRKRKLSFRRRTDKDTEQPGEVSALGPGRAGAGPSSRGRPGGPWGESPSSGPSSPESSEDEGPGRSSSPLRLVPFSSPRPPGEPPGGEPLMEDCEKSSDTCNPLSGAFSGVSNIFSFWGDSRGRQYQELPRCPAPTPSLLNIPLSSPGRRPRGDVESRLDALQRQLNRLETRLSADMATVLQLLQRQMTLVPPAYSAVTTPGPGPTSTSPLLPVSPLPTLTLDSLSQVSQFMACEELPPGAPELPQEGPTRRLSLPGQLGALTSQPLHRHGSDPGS

IC50 (human TLR7) [µM]	Compound	IC50 (hERG channel) [µM]	IC20 (hERG channel) [µM]	hERG IC20/TLR7 IC50 (hERG channel)	hERG IC20/TLR8 IC50 (hERG channel)	hERG IC20/TLR9 IC50 (hERG channel)
0.006	Cc1cc(N2CC3(CN(C)C3)C2)cnc1N1CCN2[C@@H](C1)CN(c1cc(=O)n(C)c3ncccc13)C[C@@H]2C [Example 113, 4-[(4S,9aR)-4-methyl-8-[3-methyl-5-(6-methyl-2,6-diazaspiro[3.3]heptan-2-yl)-2-pyridyl]-3,4,6,7,9,9a-hexahydro-1H-pyrazino[1,2-a]pyrazin-2-yl]-1-methyl-1,8-naphthyridin-2-one]	> 20	> 10	>1666	>70	>79
0.021	[2H]c1ccc2c(N3C[C@@H]4CN(CCc5ccc(N6C[C@H]7NCCO[C@@H]7C6)nc5)CCN4[C@H](C)C3)ccc(C#N)c2n1 [Example 77, 5-[(4R,9aS)-8-[2-[6-[(4aR,7aR)-3,4,4a,5,7,7a-hexahydro-2H-pyrrolo[3,4-b][1,4]oxazin-6-yl]-3-pyridyl]ethyl]-4-methyl-3,4,6,7,9,9a-hexahydro-1H-pyrazino[1,2-a]pyrazin-2-yl]-2-deuterio-quinoline-8-carbonitrile]	> 20	> 10	>476	>416	>227
0.01	[2H]c1ccc2c(N3C[C@@H]4CN(c5ccc(N6C[C@@H](N)[C@H](OC)C6)nc5)CCN4[C@@H](C)C3)ccc(C#N)c2n1 [Example 115, 5-[(4S,9aR)-8-[6-[(3R,4R)-3-amino-4-methoxy-pyrrolidin-1-yl]-3-pyridyl]-4-methyl-3,4,6,7,9,9a-hexahydro-1H-pyrazino[1,2-a]pyrazin-2-yl]-2-deuterio-quinoline-8-carbonitrile]	> 20	> 10	>1000	>588	>71
0.004	[2H]c1ccc2c(N3C[C@@H]4CN(c5ncc(N6CC(C)(N)C6)cc5C)CCN4[C@@H](C)C3)ccc(C#N)c2n1 [Example 118, 5-[(4S,9aR)-8-[5-(3-amino-3-methyl-azetidin-1-yl)-3-methyl-2-pyridyl]-4-methyl-3,4,6,7,9,9a-hexahydro-1H-pyrazino[1,2-a]pyrazin-2-yl]-2-deuterio-quinoline-8-carbonitrile]	> 20	7.66	1914	1276	51
0.066	C[C@@H]1CN(c2ccc(C#N)n3ncc(F)c23)C[C@@H]2CN(Cc3ccc4c(c3)CNCC4)CCN21 [Example 69, 4-[(4R,9aS)-4-methyl-8-(1,2,3,4-tetrahydroisoquinolin-7-ylmethyl)-3,4,6,7,9,9a-hexahydro-1H-pyrazino[1,2-a]pyrazin-2-yl]-3-fluoro-pyrazolo[1,5-a]pyridine-7-carbonitrile]	> 20	> 10	>152	>192	>70
0.002	[2H]c1ccc2c(N3C[C@@H]4CN(c5ncc(N6C[C@H]7NCCO[C@@H]7C6)cc5C)CCN4[C@@H](C)C3)ccc(C#N)c2n1 [Example 114, 5-[(4S,9aR)-8-[5-[(4aR,7aR)-3,4,4a,5,7,7a-hexahydro-2H-pyrrolo[3,4-b][1,4]oxazin-6-yl]-3-methyl-2-pyridyl]-4-methyl-3,4,6,7,9,9a-hexahydro-1H-pyrazino[1,2-a]pyrazin-2-yl]-2-deuterio-quinoline-8-carbonitrile]	–	–	–	–	–

Further lines, the compound ahead of its results:

Compound	IC50 (human TLR7) [µM]	IC50 (hERG channel) [µM]	IC20 (hERG channel) [µM]	hERG IC20/TLR7 IC50 (hERG channel)	hERG IC20/TLR8 IC50 (hERG channel)	hERG IC20/TLR9 IC50 (hERG channel)
C[C@@H]1CN(c2ccc(C#N)c3ncccc23)C[C@@H]2CN(c3ccnc(N4CC(N)C4)c3)CCN21 [Example 41, 5-[(4R,9aS)-8-[2-(3-aminoazetidin-1-yl)-4-pyridyl]-4-methyl-3,4,6,7,9,9a-hexahydro-1H-pyrazino[1,2-a]pyrazin-2-yl]quinoline-8-carbonitrile]	0.035	> 20	9.64	275	1377	214
CO[C@H]1CN(c2ccc(CCN3CCN4[C@@H](C3)CN(c3ccc(C#N)c5ncccc35)C[C@H]4C)cn2)C[C@@H]1N [Example 25, 5-[(4R,9aS)-8-[2-[6-[(3S,4S)-3-amino-4-methoxy-pyrrolidin-1-yl]-3-pyridyl]ethyl]-4-methyl-3,4,6,7,9,9a-hexahydro-1H-pyrazino[1,2-a]pyrazin-2-yl]quinoline-8-carbonitrile]	0.013	> 20	> 10	>769	>400	>156
C[C@@H]1CN(c2ccc(C#N)c3ncccc23)C[C@@H]2CN(Cc3ccc4c(c3)CNCC4)CCN21 [Example 5, 5-[(4R,9aS)-4-methyl-8-(1,2,3,4-tetrahydroisoquinolin-7-ylmethyl)-3,4,6,7,9,9a-hexahydro-1H-pyrazino[1,2-a]pyrazin-2-yl]quinoline-8-carbonitrile]	0.017	> 20	> 10	>588	>833	>313
C[C@@H]1CN(c2ccc(C#N)c3ncccc23)C[C@@H]2CN(Cc3ccc4c(c3)CCNC4)CCN21 [Example 10, 5-[(4R,9aS)-4-methyl-8-(1,2,3,4-tetrahydroisoquinolin-6-ylmethyl)-3,4,6,7,9,9a-hexahydro-1H-pyrazino[1,2-a]pyrazin-2-yl]quinoline-8-carbonitrile]	0.026	–	–	–	–	–
C[C@@H]1CN(c2ccc(C#N)c3ncccc23)C[C@@H]2CN(CCc3ccc(N4CC5(CNCCO5)C4)cc3)CCN21 [Example 28, 5-[(4R,9aS)-4-methyl-8-[2-[4-(5-oxa-2,8-diazaspiro[3.5]nonan-2-yl)phenyl]ethyl]-3,4,6,7,9,9a-hexahydro-1H-pyrazino[1,2-a]pyrazin-2-yl]quinoline-8-carbonitrile]	0.012	–	–	–	–	–
C[C@@H]1CN(c2ccc(C#N)c3ncccc23)C[C@@H]2CN(CCc3ccc(N4CCNCC4)nc3)CCN21 [Example 11, 5-[(4R,9aS)-4-methyl-8-[2-(6-piperazin-1-yl-3-pyridyl)ethyl]-3,4,6,7,9,9a-hexahydro-1H-pyrazino[1,2-a]pyrazin-2-yl]quinoline-8-carbonitrile]	0.007	–	–	–	–	–
[2H]c1ccc2c(N3C[C@@H]4CN(CCc5ccc(N6CC7(CN(C)C7)C6)nc5)CCN4[C@H](C)C3)ccc(C#N)c2n1 [Example 64, 5-[(4R,9aS)-4-methyl-8-[2-[6-(6-methyl-2,6-diazaspiro[3.3]heptan-2-yl)-3-pyridyl]ethyl]-3,4,6,7,9,9a-hexahydro-1H-pyrazino[1,2-a]pyrazin-2-yl]-2-deuterio-quinoline-8-carbonitrile]	0.023	–	–	–	–	–
CO[C@@H]1CN(c2ccc(CCN3CCN4[C@@H](C3)CN(c3ccc(C#N)n5ncc(F)c35)C[C@H]4C)cc2)C[C@H]1N [Example 66, 4-[(4R,9aS)-8-[2-[4-[(3R,4R)-3-amino-4-methoxy-pyrrolidin-1-yl]phenyl]ethyl]-4-methyl-3,4,6,7,9,9a-hexahydro-1H-pyrazino[1,2-a]pyrazin-2-yl]-3-fluoro-pyrazolo[1,5-a]pyridine-7-carbonitrile]	0.062	–	–	–	–	–
